Tested on: Clostridium perfringens ATCC 13124
Type: cell-based
Details: brain heart infusion broth, pH 6.0, 30° C., 0% oxygen

Substance | MIC values (%)
C8 lactylate | 0.05
C10 lactylate | 0.04
C12 lactylate | 0.002
C14 lactylate | 0.001
C16 lactylate | 0.002
C18:1 lactylate | 0.02

Source: patent publication US11517550B2 (priority 2008, dated 2022)
